This is an account of results in patent US20100273732A1, “COMBINATION METHODS OF TREATING CANCER” (priority 2003, published 2010).

pIC50: −log10 of the molar value. Read-outs that look alike come from different tables or passages of the source.

In one experiment the test system is LnCap cell line. Nature of the experiment: Cell proliferation and viability count, SAHA and gemcitabine, LnCap. The format is cell-based, human. Conditions: 2 nM gemcitabine, 5 μM SAHA or both, 72 hours. As for the experimental part:
Cells were plated at a density of 2.5×10^4 cells/ml in RMPI medium with 10% FCS, and were allowed to adhere to wells.
Gemcitabine was reconstituted in medium and the pH was adjusted to 7 using 1N NaOH. Concentrations of gemcitabine were prepared by serial dilution of gemcitabine in complete medium.
The cells were then cultured with medium containing the compound or combination of compounds.
(§1) To assay for proliferation and viability, triplicate samples of cells were harvested and counted for proliferation and viability at the indicated time points as described above in Example 2.

The next experiment relates to T24 cell line. Nature of the experiment: Cell proliferation and viability count, SAHA and 5-azacytidine, T24. The class given is cell-based, human. Conditions: 200 nM 5-azacytidine (27.5 h pre-incubation), 5 μM SAHA or both. As for the experimental part:
Cells were cultured in T-150 flasks at 37° C. in RPMI with 10% FCS. Cells were diluted in a complete medium to a density of 5.0×10^4 cells/ml. The cells were incubated at 37° C. for 14 hours before treatment with 5-azacytidine to allow cells to adhere to the wells.
Concentrations of 5-azacytidine were prepared by serial dilution of from a 1 mM stock. After 14-hour incubation in complete medium, wells were aspirated and the medium was replaced to 1 ml of 5-azacytidine at the indicated concentration.
as §1

Experiment [1] deals with carcinogen-induced (N-methylnitrosourea) mammary tumors. Conditions: rats; SAHA in diet over 130 days; cited from earlier work.
Experiment [2] deals with T24 (bladder carcinoma) cells. The experiment can be described thus: alamarBlue proliferation inhibition, drug combination experiments, T24. The format is cell-based. As to conditions: Homo sapiens, 96 h, read-out: 50% inhibition Effective Dose, T24, 4 days. As for the experimental part: (§2) Drug combination experiments were performed on five human cancer cell lines: T24 (bladder carcinoma), LnCap (prostate), MCF7 (breast), DLCL (non-Hodgkin's lymphoma) and LCC18 (colon carcinoid). Each cell line was cultured and incubated at 37° C. in its required medium: MEM a (10% FCS), RPMI 1640 (10% FCS), DME HG (10% FCS), enhanced RPMI (10% FCS), and Hites medium (5% FCS), respectively.
(§3) DLCL, a suspension cell line, was plated on 96 well plates on the same day of the experiment. For T24, LnCap, DLCL and LCC18, 200 μL containing 2000 cells were plated into each well. For MCF7, 4000 cells/well were plated to account for the line's slower cell cycle.
(§4) Cells that received no treatment served as a control group.
(§5) To administer treatment to adherent cell lines (T24, LnCap, MCF7), media in each well was aspirated and replaced with 200 μL of media containing desired concentration of drug or drugs. For all other cell lines ([…] and DLCL), 22 μL of media containing 10 times the desired concentration of drug or drugs was added to 200 μL of media in each well.
(§6) After treatment, cells were incubated at 37° C. for 4 days. On the fourth day, each well was treated with 20 μL of alamarBlur™, an aqueous dye, and incubated for 4 hours at 37° C. The reduction of this dye, when absorbed by cells, is greater in proliferating cells than in non-proliferating cells because of an increased concentration of NADPH, FADH, FMNH and NADH. The reduction was measured by fluorescence using a SpectaMax GeminiXS® spectrofluorometric microtiter well plate reader (Molecular Devices Corporation, Sunnyvale, Calif.). Data was expressed as fluorescence emission intensity units as a function of time of incubation and analyzed using SOFTmax PRO® v. 4.0 software (Molecular Devices Corp. Sunnyvale, Calif.). In order to assess the percent inhibition of cell growth four days after drug treatment, the following formula was used:
(§7) 100−(Mean Intensity Units/Well with Identical Treatment)*100(Mean Intensity Units/Well in Control Group)
(§8) The concentrations used for treatment with each drug are based on the dose that inhibits 50% of proliferation for each drug. The following concentrations were tested:
(§9) a) 50% effective dose/4; b) 50% effective dose/2; c) 50% effective dose; d) 50% effective dose*2; and e) 50% effective dose*4. […] A polynomial relationship was defined between drug concentration and percent inhibition using various concentrations, and this function was used to predict the concentration of each drug required to inhibit proliferation of 50% of the cells.
(§10) The following criteria were established for assessing additive, synergistic and antagonistic interactions: […]

For the next experiment, the system named is LnCap (prostate) cells. The experiment can be described thus: alamarBlue proliferation inhibition, drug combination experiments, LnCap. The class given is cell-based. As to conditions: Homo sapiens, 96 h. As for the experimental part: as §2, §3, §4, §5, §6, §7, §8, §9, §10
[3] abbreviates: in combination with SAHA 0.625 μM.
Setting [4] is: in combination with SAHA 1.25 μM.
Setting [5] is: in combination with SAHA 2.5 μM.
[6] abbreviates: in combination with SAHA 5.0 μM.
Where [7] appears, read: in combination with SAHA 10.0 μM.
[8] abbreviates: read-out: 50% inhibition Effective Dose, LnCap, agent alone, 4 days.
[9] abbreviates: read-out: 50% inhibition Effective Dose, LnCap, in combination with SAHA 0.125 μM, 4 days.
The mark [10] stands for this setting: read-out: 50% inhibition Effective Dose, LnCap, in combination with SAHA 0.25 μM, 4 days.
[11] abbreviates: read-out: 50% inhibition Effective Dose, LnCap, in combination with SAHA 0.5 μM, 4 days.
Setting [12] is: read-out: 50% inhibition Effective Dose, LnCap, in combination with SAHA 1.0 μM, 4 days.
Where [13] appears, read: read-out: 50% inhibition Effective Dose, LnCap, in combination with SAHA 2.0 μM, 4 days.

Take `O=C(CCCCCCC(=O)Nc1ccccc1)NO` [SAHA, suberoylanilide hydroxamic acid]: the “Effect on cell proliferation (FIG. 2)” value in the experiment with LnCap cell line was “significantly inhibited proliferation”. In the experiment on T24 cell line, the “Effect on cell proliferation (FIG. 3)” value is on record as “significantly inhibited proliferation”. In addition, in experiment [1], the “Development and continued growth of mammary tumors” value was “effective at inhibiting the development and continued growth”.
For `CC(=O)O[C@@]12CO[C@@H]1C[C@H](O)[C@@]1(C)C(=O)[C@H](O)C3=C(C)[C@@H](OC(=O)[C@H](O)[C@@H](NC(=O)OC(C)(C)C)c4ccccc4)C[C@@](O)([C@@H](OC(=O)c4ccccc4)[C@H]21)C3(C)C` [Docetaxel], the pIC50 was 8.68 in experiment [2] (agent alone); 9.29 in experiment [2] (setting [3]); 9.14 in experiment [2] (setting [4]); 9.23 in experiment [2] (setting [5]); 9.54 in experiment [2] (setting [6]); 10.30 in experiment [2] (setting [7]). For the same compound, the pIC50 is 8.68 with LnCap (prostate) cells (setting [8]); 8.92 in the experiment with LnCap (prostate) cells (setting [9]); 8.92 in the experiment on LnCap (prostate) cells (setting [10]); 9.22 with LnCap (prostate) cells (setting [11]); 9.47 in the experiment with LnCap (prostate) cells (setting [12]); 9.92 in the experiment on LnCap (prostate) cells (setting [13]).
With `CCc1c2c(nc3ccc(OC(=O)N4CCC(N5CCCCC5)CC4)cc13)-c1cc3c(c(=O)n1C2)COC(=O)[C@]3(O)CC` [Irinotecan], the pIC50 in experiment [2] (agent alone) is 8.29; in experiment [2] (setting [3]) it was 8.39; in experiment [2] (setting [4]), 8.55; in experiment [2] (setting [5]) it was 8.72; in experiment [2] (setting [6]) it was 8.85; in experiment [2] (setting [7]), 9.55. For the same compound, the pIC50 with LnCap (prostate) cells (setting [8]) was 8.29; in the experiment on LnCap (prostate) cells (setting [9]), 8.29; in the experiment on LnCap (prostate) cells (setting [10]) it was 8.39; with LnCap (prostate) cells (setting [11]), 8.42; in the experiment on LnCap (prostate) cells (setting [12]), 8.72; with LnCap (prostate) cells (setting [13]) it was 8.72.
On to `Nc1ccn([C@@H]2O[C@H](CO)[C@@H](O)C2(F)F)c(=O)n1` [gemcitabine], for which the “Effect on cell proliferation (FIG. 2)” value with LnCap cell line is listed as “small effect”.
Turning to `O=c1[nH]cc(F)c(=O)[nH]1` [5-FU, 5-Fluorouracil], the pIC50 in experiment [2] (agent alone) was 4.85; in experiment [2] (setting [3]), 4.88; in experiment [2] (setting [4]) it was 4.94; in experiment [2] (setting [6]) it was 5.57; in experiment [2] (setting [7]), 5.82; in the experiment with LnCap (prostate) cells (setting [8]), 5.52. Also, the pIC50 in the experiment on LnCap (prostate) cells (setting [9]) is 5.28; in the experiment on LnCap (prostate) cells (setting [11]), 5.80; with LnCap (prostate) cells (setting [12]) it was 5.72; with LnCap (prostate) cells (setting [13]), 6.00.
On to `Nc1ncn([C@@H]2O[C@H](CO)[C@@H](O)[C@H]2O)c(=O)n1` [5-azacytidine], for which the “Effect on cell proliferation (FIG. 3)” value in the experiment with T24 cell line is given as “significantly inhibited proliferation”.
